For this series, the system named is CCRIS mutagenicity, Ames/micronucleus/aberration tests. Briefly: CCRIS mutagenicity studies.
Setting [1] is: Test System: AMES SALMONELLA TYPHIMURIUM, Strain/Indicator: TA100, Metabolic Activation: NONE, Method: PREINCUBATION
[2] abbreviates: Test System: AMES SALMONELLA TYPHIMURIUM, Strain/Indicator: TA98, Metabolic Activation: NONE, Method: STANDARD PLATE.

Each structure is given as a SMILES string. Activity calls are given as the source filed them. The rule behind the calls is not given here.

The values that follow come from PubChem BioAssay AID1259407 (Chemical Carcinogenesis Research Information System (CCRIS), 2018).

For the compound `O=c1c(O)c(-c2ccccc2)oc2cc(O)cc(O)c12`, the mutagenic call is “inactive; negative” under setting [1] and “inactive; negative” (Test System: AMES SALMONELLA TYPHIMURIUM, Strain/Indicator: TA100, Metabolic Activation: RAT LIVER S-9, AROCLOR 1254, Method: PREINCUBATION).

As for `OCc1cccc2c1-c1cccc3cccc-2c13`, the mutagenic call under setting [2] is “inactive; negative” and the mutagenic call (Test System: AMES SALMONELLA TYPHIMURIUM, Strain/Indicator: TA100, Metabolic Activation: NONE, Method: STANDARD PLATE) is “inactive; negative”.

In the case of `OCc1c2ccccc2cc2c1ccc1ccccc12`, the mutagenic call runs as follows: under setting [2], “active; positive”; (Test System: AMES SALMONELLA TYPHIMURIUM, Strain/Indicator: TA98, Metabolic Activation: RAT, LIVER, S-9, 3'-PHOSPHOADENOSINE 5'-PHOSPHOSULFATE GENERATING SYSTEM, Method: PREINCUBATION) “active; positive”; (Test System: AMES SALMONELLA TYPHIMURIUM, Strain/Indicator: TA98, Metabolic Activation: RAT, LIVER, S-9, NADPH GENERATING SYSTEM, Method: PREINCUBATION) “active; positive”; (Test System: AMES SALMONELLA TYPHIMURIUM, Strain/Indicator: TA98, Metabolic Activation: RAT, LIVER, S-105, 3'-PHOSPHOADENOSINE 5'-PHOSPHOSULFATE GENERATING SYSTEM, Method: PREINCUBATION) “active; positive”.

On to `CC(C)Cl`, for which the mutagenic call was “inactive; negative” (End Point: In vitro micronucleus, Test System: Chinese Hamster Ovary (CHO-WBL) cells, Metabolic Activation: None); “active; positive” (Test System: AMES SALMONELLA TYPHIMURIUM, Strain/Indicator: TA100, Metabolic Activation: NONE, Method: DESICCATOR); “active; positive” (Test System: AMES SALMONELLA TYPHIMURIUM, Strain/Indicator: TA100, Metabolic Activation: RAT, LIVER, S-9, AROCLOR 1254, Method: DESICCATOR).

Regarding `O=C1c2c(O)cc(O)cc2O[C@H](c2ccc(O)c(O)c2)[C@H]1O`, the mutagenic call was “inactive; negative” (Test System: Ames Salmonella typhimurium, Strain/Indicator: TA102, Metabolic Activation: Fe ++ (1 uM) with NADPH generating system, Method: Preincubation); “inactive; negative” (Test System: Ames Salmonella typhimurium, Strain/Indicator: TA102, Metabolic Activation: None, Method: Preincubation); “inactive; negative” (Test System: Ames Salmonella typhimurium, Strain/Indicator: TA102, Metabolic Activation: Rat, Liver, S-9, Aroclor 1254, Method: Preincubation); “inactive; negative” (Test System: Ames Salmonella typhimurium, Strain/Indicator: TA102, Metabolic Activation: Rat, Liver, S-9, Aroclor 1254 in 0.154 M KCl, Method: Preincubation); “inactive; negative. authors say results are positive at 100 and 250 um but results are bar” (Test System: E. coli, Strain/Indicator: WP2 uvrA, Metabolic Activation: Fe ++ (1 uM) with NADPH generating system, Method: Preincubation); “inactive; negative” (Test System: E. coli, Strain/Indicator: WP2 uvrA, Metabolic Activation: None, Method: Preincubation). Further, the mutagenic call (Test System: E. coli, Strain/Indicator: WP2 uvrA, Metabolic Activation: Rat, Liver, S-9, Aroclor 1254, Method: Preincubation) was “inactive; negative”.

Take `CCCCCCCCCCCC(=O)N(CCO)CCO`: the mutagenic call by setting is: (End Point: IN VITRO CHROMOSOMAL ABERRATIONS, Test System: CHO-LB CELLS, Metabolic Activation: NONE) “inactive; negative”; (End Point: IN VITRO CHROMOSOMAL ABERRATIONS, Test System: CHO-LB CELLS, Metabolic Activation: RAT, LIVER, S-9, AROCLOR 1254) “inactive; negative”; (Test System: AMES SALMONELLA TYPHIMURIUM, Strain/Indicator: TA97, Metabolic Activation: HAMSTER, LIVER, S-9, AROCLOR 1254 (10%), Method: PREINCUBATION) “inactive; negative”; (Test System: AMES SALMONELLA TYPHIMURIUM, Strain/Indicator: TA97, Metabolic Activation: HAMSTER, LIVER, S-9, AROCLOR 1254 (30%), Method: PREINCUBATION) “inactive; negative”; (Test System: AMES SALMONELLA TYPHIMURIUM, Strain/Indicator: TA97, Metabolic Activation: NONE, Method: PREINCUBATION) “inactive; negative”; (Test System: AMES SALMONELLA TYPHIMURIUM, Strain/Indicator: TA97, Metabolic Activation: RAT, LIVER, S-9, AROCLOR 1254 (10%), Method: PREINCUBATION) “inactive; negative”. The mutagenic call reads like this: (Test System: AMES SALMONELLA TYPHIMURIUM, Strain/Indicator: TA97, Metabolic Activation: RAT, LIVER, S-9, AROCLOR 1254 (30%), Method: PREINCUBATION) “inactive; negative”; (Test System: AMES SALMONELLA TYPHIMURIUM, Strain/Indicator: TA98, Metabolic Activation: HAMSTER, LIVER, S-9, AROCLOR 1254 (10%), Method: PREINCUBATION) “inactive; negative”; (Test System: AMES SALMONELLA TYPHIMURIUM, Strain/Indicator: TA98, Metabolic Activation: HAMSTER, LIVER, S-9, AROCLOR 1254 (30%), Method: PREINCUBATION) “inactive; negative”; (Test System: AMES SALMONELLA TYPHIMURIUM, Strain/Indicator: TA98, Metabolic Activation: NONE, Method: PREINCUBATION) “inactive; negative”; (Test System: AMES SALMONELLA TYPHIMURIUM, Strain/Indicator: TA98, Metabolic Activation: RAT, LIVER, S-9, AROCLOR 1254 (10%), Method: PREINCUBATION) “inactive; negative”; (Test System: AMES SALMONELLA TYPHIMURIUM, Strain/Indicator: TA98, Metabolic Activation: RAT, LIVER, S-9, AROCLOR 1254 (30%), Method: PREINCUBATION) “inactive; negative”. For the same compound, the mutagenic call (Test System: AMES SALMONELLA TYPHIMURIUM, Strain/Indicator: TA100, Metabolic Activation: HAMSTER, LIVER, S-9, AROCLOR 1254 (10%), Method: PREINCUBATION) was “inactive; negative”; the mutagenic call (Test System: AMES SALMONELLA TYPHIMURIUM, Strain/Indicator: TA100, Metabolic Activation: HAMSTER, LIVER, S-9, AROCLOR 1254 (30%), Method: PREINCUBATION) is “inactive; negative”; the mutagenic call under setting [1] was “inactive; negative”; the mutagenic call (Test System: AMES SALMONELLA TYPHIMURIUM, Strain/Indicator: TA100, Metabolic Activation: RAT, LIVER, S-9, AROCLOR 1254 (10%), Method: PREINCUBATION) was “inactive; negative”; the mutagenic call (Test System: AMES SALMONELLA TYPHIMURIUM, Strain/Indicator: TA100, Metabolic Activation: RAT, LIVER, S-9, AROCLOR 1254 (30%), Method: PREINCUBATION) is “inactive; negative”; the mutagenic call (Test System: AMES SALMONELLA TYPHIMURIUM, Strain/Indicator: TA1535, Metabolic Activation: HAMSTER, LIVER, S-9, AROCLOR 1254 (10%), Method: PREINCUBATION) was “inactive; negative”. Moreover, the mutagenic call was “inactive; negative” (Test System: AMES SALMONELLA TYPHIMURIUM, Strain/Indicator: TA1535, Metabolic Activation: HAMSTER, LIVER, S-9, AROCLOR 1254 (30%), Method: PREINCUBATION); “inactive; negative” (Test System: AMES SALMONELLA TYPHIMURIUM, Strain/Indicator: TA1535, Metabolic Activation: NONE, Method: PREINCUBATION); “inactive; negative” (Test System: AMES SALMONELLA TYPHIMURIUM, Strain/Indicator: TA1535, Metabolic Activation: RAT, LIVER, S-9, AROCLOR 1254 (10%), Method: PREINCUBATION); “inactive; negative” (Test System: AMES SALMONELLA TYPHIMURIUM, Strain/Indicator: TA1535, Metabolic Activation: RAT, LIVER, S-9, AROCLOR 1254 (30%), Method: PREINCUBATION).

In the case of `c1cc2c3c(c1)=C1OC1C=3Cc1cc3ccccc3cc1-2` (configuration not stated), the mutagenic call is “active; positive” under setting [2] and “active; positive” (Test System: AMES SALMONELLA TYPHIMURIUM, Strain/Indicator: TA98, Metabolic Activation: RAT, LIVER, S-9, AROCLOR 1254, Method: STANDARD PLATE).
